Laboratory results from patent publication US12383539B2 (Cavion, Inc., priority 2018, dated 2025).

Tested on: patients with essential tremor
Test: T-CALM: TETRAS total score
Type: in vivo, human
Experimental: The Total TETRAS score was defined as the sum of the TETRAS performance subscale total score and the TETRAS ADL subscale score. TETRAS TOTAL score combines both patient reported outcome and objective measurement of tremor amplitude in a single score. Analyses of the TETRAS-ADL was conducted using the same type of ANCOVA model as described for the TETRAS-PS, using two-sided tests at the alpha=0.05 level of significance (FIG. 3 and Table 3).

Question: Which results are given for `CC(C)c1ccc(CC(=O)N[C@H](C)c2ccc(OCC(F)(F)F)cn2)cc1` [CX-8998]?
Answer: responders: improvement of at least 5 points by TETRAS Total score, % (Day 15): (56.4%); responders: improvement of at least 5 points by TETRAS Total score, number (Day 15, N 39): 22; TETRAS Total change from baseline 0 change: subjects, number (%) (Day 15, N = 39): 1 (2.6%); TETRAS Total change from baseline >0 to 1 point improvement: subjects, number (%) (Day 15, N = 39): 2 (5.1%); TETRAS Total change from baseline >0 to 1 point worsening: subjects, number (%) (Day 15, N = 39): 2 (5.1%); TETRAS Total change from baseline >1 to 2.5 point improvement: subjects, number (%) (Day 15, N = 39): 2 (5.1%); TETRAS Total change from baseline >1 to 2.5 point worsening: subjects, number (%) (Day 15, N = 39): 1 (2.6%); TETRAS Total change from baseline >2.5 to 5 point improvement: subjects, number (%) (Day 15, N = 39): 7 (17.9%); TETRAS Total change from baseline >2.5 to 5 point worsening: subjects, number (%) (Day 15, N = 39): 4 (10.3%); TETRAS Total change from baseline >5 to 10 point improvement: subjects, number (%) (Day 15, N = 39): 6 (15.4%); TETRAS Total change from baseline >5 to 10 point worsening: subjects, number (%) (Day 15, N = 39): 0; TETRAS Total change from baseline >10 to 20 point improvement: subjects, number (%) (Day 15, N = 39): 12 (30.8%); TETRAS Total change from baseline >20 point improvement: subjects, number (%) (Day 15, N = 39): 2 (5.1%); TETRAS Total change from baseline >point worsening: subjects, number (%) (Day 15, N = 39): 0; total TETRAS score with TETRAS-PS rated by independent video raters, vs placebo (Day 15 and Day 28): trended toward improvement for the CX-8998 group but was not statistically significant; responders: improvement of at least 5 points by TETRAS Total score, % (Day 28): (56.8%); responders: improvement of at least 5 points by TETRAS Total score, number (Day 28, N 37): 21; TETRAS Total change from baseline 0 change: subjects, number (%) (Day 28, N = 37): 0; TETRAS Total change from baseline >0 to 1 point improvement: subjects, number (%) (Day 28, N = 37): 2 (5.4%); TETRAS Total change from baseline >0 to 1 point worsening: subjects, number (%) (Day 28, N = 37): 4 (10.8%); TETRAS Total change from baseline >1 to 2.5 point improvement: subjects, number (%) (Day 28, N = 37): 2 (5.4%); TETRAS Total change from baseline >1 to 2.5 point worsening: subjects, number (%) (Day 28, N = 37): 2 (5.4%); TETRAS Total change from baseline >2.5 to 5 point improvement: subjects, number (%) (Day 28, N = 37): 5 (13.5%); TETRAS Total change from baseline >2.5 to 5 point worsening: subjects, number (%) (Day 28, N = 37): 1 (2.7%); TETRAS Total change from baseline >5 to 10 point improvement: subjects, number (%) (Day 28, N = 37): 7 (18.9%); TETRAS Total change from baseline >5 to 10 point worsening: subjects, number (%) (Day 28, N = 37): 0; TETRAS Total change from baseline >10 point worsening: subjects, number (%) (Day 28, N = 37): 0; TETRAS Total change from baseline >10 to 20 point improvement: subjects, number (%) (Day 28, N = 37): 8 (21.6%); TETRAS Total change from baseline >20 point improvement: subjects, number (%) (Day 28, N = 37): 5 (13.5%)
